Consider four molecules from patent publication US10343991B2, “C5, C6 substituted and/or fused oxindoles as anti-cancer agents and process for preparation thereof” (Council of Scientific & Industrial Research, priority 2016, dated 2019).

Each structure is given as a SMILES string.

Data set [1] relates to THP1 cells. Briefly: Trypan blue assay, cell viability. Type of data set: cell-based. To be noted: Homo sapiens, THP-1, 48 h, average of three experiments. As to the method:
(§1) In order to determine the anticancer potency, the synthesized oxindole derivatives were evaluated for anti-cancer activity various different human cancer cell lines, Leukemic Cancer (THP1), human breast cancer (MDA-MB-231 and MCF-7), human cervix carcinoma cells (HeLa), prostate cancer (DU-145) cellS by using standard Trypan blue and SRB assays. The preliminary anticancer activity for all the synthesized compounds was done at 10 μM concentration and cell inhibition was determined. […] The experiment was repeated thrice and the average values were taken.
The assay was carried out in a 24 well flat-bottomed microtiter tissue culture plate. THP1 cells were seeded in the plates with a density of 4×10^4 cells/well (counted by tryphan blue exclusion dye method). Compounds were added to obtain a concentration of 10 μM. Sunitinib was used as positive control. Plates were incubated for 48 h at 37° C. in a humidified incubator with 5% CO2. At the end of the treatments, cells (THP1) were resuspended in 0.4% trypan blue and percent cell viability was counted using countess cell chamber (Life Technologies).

The next data set deals with DU-145 cells. Briefly: SRB assay, cell viability. To be noted: Homo sapiens, 48 h, average of three experiments, read-out: DU145 Cell Viability at 10 μM. Type of data set: cell-based. The protocol:
as §1
(§2) The assay was carried out in a 24 well flat-bottomed microtiter tissue culture plate. Cells were seeded in the plates with a density of 4×10^4 cells/well (counted by tryphan blue exclusion dye method). After 24 hours media was replaced with fresh media and then compounds were added to obtain a concentrations of 10 μM. Sunitinib was used as positive control. Plates were incubated for 48 h at 37° C. in a humidified incubator with 5% CO2. After 48 hours without removing the cell culture supernatant, 500 μl of cold 10% (wt/vol) TCA was added to each well, and the plates were incubated at 4° C. for 1 h. The plates were washed for four times with water then rinsed with water several times to remove TCA, serum, proteins and excess water was removed using paper towels and air dried. 100 μl of 0.4% (wt/vol in 1% acetic acid) SRB solution was added to each well. Plates were left at room temperature for 30 min and then the plates were quickly rinsed for four times with 1% (vol/vol) acetic acid to remove unbound dye were and then air dried until no moisture was visible. 100 μl of 10 mM Tris base solution (pH 10.5) was added to each well and shake for 5 min to solubilize the protein-bound dye. Optical density was measured at 564 nm in a micro plate reader.
For orientation: In SRB staining, fixed cells bind dye roughly in proportion to their protein.

The subject of a further data set is MCF-7 cells. As to the kind of experiment: SRB assay, cell viability. To be noted: Homo sapiens, MCF7, 48 h, average of three experiments. The data set is classed as cell-based. The protocol: as §1, §2
A further data set deals with MDA-MB-231 cells. As to the kind of experiment: SRB assay, cell viability. The data set is classed as cell-based. As to conditions: Homo sapiens, 48 h, average of three experiments. The protocol: as §1, §2
For the next data set, the system named is HeLa cells. Briefly: SRB assay, cell viability. Type of data set: cell-based. To be noted: Homo sapiens, 48 h, average of three experiments. The protocol:
as §1, §2

Data set [2] concerns THP1 cells. Type of data set: cell-based, human. As to conditions: THP-1 cells, 10 μM, 24 h; untreated cells 68.3%. As to the method: To understand the anticancer activity mechanism of the synthesized oxindole derivatives, we analysed the cell cycle alteration phase distribution of the cells by treating THP1 cells with oxindole derivatives at 10 μM, for 24 h and analyzed by flow cytometry. Treatment of THP-1 cells with compounds 2b, 3d, 3e, 3g, 3h, 3i, 3j and 3k caused an accumulation of 98.5%, 94.3%, 96.7%, 97%, 98%, 83%, 93.5%, 98.1% cells in the G0/G1 phase respectively as compared to 68.3% in untreated cells and 99.5% in Sunitinib treated cells. […] (Fig. x and Table .y).
The THP1 cells were treated with the active compounds at […] and incubated for about 24 h. The cells were fixed in ice cold ethanol solvent at 4° C. for about 30 minutes. The ethanol was removed and cells were treated with 1 mL of DNA staining solution (2 mg of RNase and 0.2 mg of propidium iodide (PI)) for 30 minutes. The DNA content was measured by flow cytometry (BD FACS C anto II). Results were analysed using FCS express 4 plus software.

Data set [3] relates to VEGF tyrosin kinase (VEGFR). Briefly: VEGFR activity, phosphotyrosine (PY) cell-based ELISA. As to conditions: 10 μM, 60 min pretreatment, VEGF stimulation. As to the method:
Briefly, cells at 60-75% confluence were placed in serum-free medium for 18 h to reduce the background of phosphorylation. Cells were then pretreated for 60 min with 2b, 3d, 3e, 3g, 3h, 3i, 3j and 3k compounds at 10 μM concentration followed by an optimized dose of purified growth factor (VEGF). The reaction was stopped, and cells were permeabilized by quickly removing the media from the cells and adding ice-cold Tris-buffered saline (TBS) containing 0.05% triton X-100, protease inhibitor cocktail, and tyrosine phosphatase inhibitor cocktail (both from Sigma Chemical). The TBS solution was then removed, and cells were fixed to the plate by heat and further incubation in 70% ethanol. Cells were further exposed to block (TBS with 1% BSA) and washed, and then a horseradish peroxidase (HRP)-conjugated phosphotyrosine antibody was added. The antibody was removed; cells were washed again and exposed to an enhanced luminol ELISA substrate, and light emission was measured using a plate reader. The known RTK-specific kinase inhibitor (Sunitinib) was used as positive control for kinase inhibition.
A general note: In an ELISA, binding on a coated surface is turned into a signal by an enzyme label.

Usually viability stands for a read-out of living cells in per cent, often relative to untreated cells. For orientation: melting point means the temperature of the solid-liquid transition.

For the molecule `Cc1ccc(S(=O)(=O)n2cc(C(C#Cc3ccccc3)c3cc4c(cc3O)NC(=O)/C4=C\c3[nH]c(C)cc3C)c3ccccc32)cc1` (centres unmarked) [Compound 3g, (Z)-3-((3,5-dimethyl-1H-pyrrol-2-yl)methylene)-6-hydroxy-5-(3-phenyl-1-(1-tosyl-1H-indol-3-yl)prop-2-yn-1-yl)indolin-2-one], the melting point fell in the range of 185 to 186 °C. The viability at 10 µM in the data set on THP1 cells [1] turned out to be 104%. The viability at 10 µM in the data set with DU-145 cells is 94.3%. In addition, the viability at 10 µM in the data set on MCF-7 cells came out at 91.5%. In addition, in the data set with MDA-MB-231 cells, the viability at 10 µM was found to be 63.8%. Also, the viability at 10 µM in the data set on HeLa cells was determined as 88.3%. For the same molecule, the “accumulation of cells in the G0/G1 phase” value with THP1 cells [2] was found to be 97%. Moreover, the “inhibitory activity of VEGF tyrosin kinase activity” value in data set [3] is on record as “inhibitory activity”.

With `Cc1cc(C)c(/C=C2\C(=O)Nc3cc4oc(Cc5ccccc5)c(-c5ccccc5)c4cc32)[nH]1` [Compound 3h, (Z)-2-benzyl-5-((3,5-dimethyl-1H-pyrrol-2-yl)methylene)-3-phenyl-5H-furo[3,2-f]indol-6(7H)-one], the melting point is 186 to 188 °C. In the data set on THP1 cells [1], the viability at 10 µM stood at 36.2%. Besides, the viability at 10 µM in the data set on DU-145 cells worked out at 58.6%. Also, in the data set on MCF-7 cells, the viability at 10 µM is 40.5%. Besides, in the data set with MDA-MB-231 cells, the viability at 10 µM came to 41.3%. In addition, the viability at 10 µM with HeLa cells came to 40.3%. Besides, the “accumulation of cells in the G0/G1 phase” value with THP1 cells [2] came to 98%. Further, in data set [3], the “inhibitory activity of VEGF tyrosin kinase activity” value is given as “inhibitory activity”.

With `Cc1ccsc1/C=C1\C(=O)Nc2cc3oc(Cc4ccccc4)c(-c4ccccc4)c3cc21` [Compound 3i, (Z)-2-benzyl-5-((3-methylthiophen-2-yl)methylene)-3-phenyl-5H-furo[3,2-f]indol-6(7H)-one], the melting point lay in the range of 165 to 168 °C. Moreover, in the data set on THP1 cells [1], the viability at 10 µM came to 41.2%. Also, the viability at 10 µM in the data set with DU-145 cells stood at 52%. The viability at 10 µM in the data set on MCF-7 cells worked out at 31.4%. Further, the viability at 10 µM in the data set on MDA-MB-231 cells was determined as 43.2%. Further, the viability at 10 µM in the data set with HeLa cells amounted to 42.6%. Besides, the “accumulation of cells in the G0/G1 phase” value in the data set on THP1 cells [2] is 83%. Besides, the “inhibitory activity of VEGF tyrosin kinase activity” value in data set [3] is “inhibitory activity”.

With `CN(C)c1ccc(/C=C2\C(=O)Nc3cc4oc(Cc5ccccc5)c(-c5ccccc5)c4cc32)c2ccccc12` [Compound 3j, (Z)-2-benzyl-5-((4-(dimethylamino)naphthalen-1-yl)methylene)-3-phenyl-5H-furo[3,2-f]indol-6(7H)-one], the melting point was in the range of 241 to 245 °C. Moreover, the viability at 10 µM with THP1 cells [1] came to 83.3%. In addition, the viability at 10 µM in the data set with DU-145 cells is 45.2%. Moreover, the viability at 10 µM in the data set with MCF-7 cells was found to be 37.8%. Also, the viability at 10 µM in the data set with MDA-MB-231 cells amounted to 71.3%. Moreover, the viability at 10 µM in the data set with HeLa cells was found to be 107%. In addition, the “accumulation of cells in the G0/G1 phase” value with THP1 cells [2] was 93.5%. The “inhibitory activity of VEGF tyrosin kinase activity” value in data set [3] is reported as “inhibitory activity”.
